Test results taken from patent US8338420B1, “Treatment of Parkinson's disease and enhancement of dopamine signal using PDE 10 inhibitor” (Mitsubishi Tanabe Pharma Corporation, priority 2002, dated 2012).

Molecular target: T1, PDE9 (PDE9A) (Homo sapiens, UniProt O76083)
T1 construct: FLAG (pFLAG-CMV-2) (N); made in house; host or cells: COS-7 cells, 100,000 x g supernatant of the sonicate, not purified
Assay: PDE assay, recombinant human PDE9A
Format: biochemical
Details: substrate about 12 nM [3H]-cGMP and 0.1 μM cGMP
Experimental: Based on the information of cDNA sequence of human PDE9A (Genbank/EMBL Accession No. AF048837) (Fisher et al., J. Biol. Chem., 1998, vol. 273, pp. 15559-15564, […]), a cDNA encoding human PDE9A was cloned by PCR method. Using this cDNA, a recombinant protein of human PDE9A was prepared as follows.
A DNA fragment comprising a cDNA encoding human PDE9A was linked to pFLAG-CMV-2 (available from Kodak), to give a vector plasmid for expression of human PDE9A, with a flag tag peptide added to the N-terminus. COS-7 cells were transfected by these vector plasmids, and the cells were cultured in Dulbecco's modified Eagle medium containing 10% bovine fetal serum for about 24 to 48 hours. After incubation, the cells were collected, and washed with Phosphate buffered saline, and re-suspended in a solution buffer (20 mM Tris-HCl, pH7.5, 2 mM magnesium acetate, 0.3 mM calcium chloride, 1 mM dithiothreitol, 1.3 mM benzamidine). The cells were homogenized by ultrasonic treatment, and subjected to centrifugation (100,000×g, 4° C., 1 hour) to collect a supernatant.
This supernatant containing the recombinant human PDE9A was used for PDE assay as a PDE9 (PDE9A) enzyme solution. […]

T1 sequence (O76083 whole entry): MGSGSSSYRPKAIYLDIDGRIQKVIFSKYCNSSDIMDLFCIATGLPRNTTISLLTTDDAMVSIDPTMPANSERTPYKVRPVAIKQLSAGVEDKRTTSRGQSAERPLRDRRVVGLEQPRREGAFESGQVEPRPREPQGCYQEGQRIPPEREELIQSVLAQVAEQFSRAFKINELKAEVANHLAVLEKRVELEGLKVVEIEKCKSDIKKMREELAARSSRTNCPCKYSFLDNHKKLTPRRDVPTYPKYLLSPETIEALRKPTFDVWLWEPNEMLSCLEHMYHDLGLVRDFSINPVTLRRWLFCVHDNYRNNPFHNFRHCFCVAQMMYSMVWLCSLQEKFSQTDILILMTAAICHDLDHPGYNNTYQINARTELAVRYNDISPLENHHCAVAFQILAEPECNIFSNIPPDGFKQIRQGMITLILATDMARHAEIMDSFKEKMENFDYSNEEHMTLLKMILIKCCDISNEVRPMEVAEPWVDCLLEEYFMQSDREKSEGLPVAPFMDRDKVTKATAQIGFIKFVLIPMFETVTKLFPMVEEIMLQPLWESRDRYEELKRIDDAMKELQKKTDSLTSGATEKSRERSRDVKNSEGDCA

IC50: > 1000 nM
SMILES: COc1ccc(-c2cc(N3CCCC3)nc(/C=C/c3nc(-n4ccnc4)c4ccccc4n3)n2)cc1OC [Compound A, 2-{(E)-2-[4-(1-imidazolyl)-quinazolin-2-yl]}ethenyl-4-(3,4-dimethoxy)phenyl-6-(pyrrolidin-1-yl)pyrimidine]
